Measurements: the CheMixHub drug solubility set

Experiment: xn = mol fraction of the nth substance listed, in the solute-free solvent

CS(=O)(=O)c1ccc(C(O)C(CF)NC(=O)C(Cl)Cl)cc1 (configuration not stated) + CO + O
solubility (g/100 g solution)
Details	278.15 K	283.15 K	288.15 K	293.15 K	298.15 K	303.15 K	308.15 K	313.15 K	318.15 K
x2 = 0.05881	0.163	0.211	0.278	0.358	0.449	0.571	0.711	0.881	1.09
x2 = 0.1233	0.379	0.485	0.609	0.762	0.939	1.15	1.41	1.71	2.06
x2 = 0.1942	0.707	0.878	1.08	1.31	1.58	1.9	2.27	2.68	3.17
x2 = 0.2727	1.06	1.32	1.6	1.93	2.31	2.78	3.28	3.88	4.53
x2 = 0.3599	1.47	1.83	2.25	2.71	3.25	3.88	4.58	5.45	6.34
x2 = 0.4576	1.92	2.4	2.94	3.6	4.3	5.17	6.17	7.3	8.52
x2 = 0.5675	2.52	3.12	3.82	4.64	5.63	6.76	7.98	9.5	11
x2 = 0.6923	3.16	3.96	4.85	5.92	7.07	8.44	10.1	11.9	13.7
x2 = 0.835	3.91	4.85	5.98	7.23	8.65	10.3	12.2	14.2	16.5

COC(=O)C1=C(C)NC(C)=C(C(=O)OCC(C)C)C1c1ccccc1[N+](=O)[O-] (configuration not stated) + CCO + O
solubility (g/100 g solution)
Details	278.15 K	283.15 K	288.15 K	293.15 K	298.15 K	303.15 K	308.15 K	313.15 K	318.15 K
x2 = 0.08908	0.379	0.503	0.648	0.817	0.987	1.2	1.42	1.68	1.99
x2 = 0.2068	1.23	1.53	1.87	2.25	2.73	3.28	3.94	4.74	5.64
x2 = 0.3698	1.72	2.14	2.63	3.16	3.79	4.51	5.31	6.22	7.38
x2 = 0.6101	2.18	2.75	3.38	4.12	5	6	7.01	8.24	9.61

CC1(C)SC2C(NC(=O)C(NC(=O)N3CCNC3=O)c3ccccc3)C(=O)N2C1C(=O)O (configuration not stated) + CO + CC(C)O
solubility (g/100 g solution)
Details	278.15 K	283.15 K	288.15 K	293.15 K	298.15 K	303.15 K	308.15 K	313.15 K	318.15 K	323.15 K
x2 = 0.1	0.0982	0.114	0.133	0.163	0.195	0.225	0.276	0.333	0.411	0.503
x2 = 0.199	0.115	0.133	0.155	0.196	0.228	0.289	0.344	0.425	0.516	0.639
x2 = 0.3	0.139	0.156	0.188	0.229	0.277	0.331	0.4	0.501	0.611	0.735
x2 = 0.4	0.156	0.173	0.202	0.247	0.299	0.361	0.455	0.551	0.673	0.832
x2 = 0.497	0.165	0.186	0.227	0.266	0.323	0.394	0.504	0.618	0.749	0.926
x2 = 0.6	0.186	0.22	0.255	0.298	0.374	0.448	0.55	0.678	0.811	0.994
x2 = 0.7	0.215	0.243	0.295	0.353	0.42	0.494	0.625	0.742	0.889	1.13
x2 = 0.8	0.251	0.297	0.35	0.43	0.49	0.584	0.732	0.868	1.09	1.34
x2 = 0.9	0.297	0.368	0.427	0.507	0.602	0.722	0.92	1.14	1.37	1.68
